# Experimental data reported in US20150064273A1, “Mesenchymal Stem Cells Conditioned Medium and Methods of Generating and Using the Same” (Gamida-Cell Ltd., priority 2012, published 2015).
# What was measured:
# Assay type in all cases: cell-based
# IL-6 = IL-6 content of MSC conditioned medium by ELISA; conditions: passage 4; 5 mM NAM, 50 ng/ml FGF4; serum- and FGF4-free medium for 24 hours
# Procedure: FIG. 25 is a bar graph illustrating reduction of cytokine IL-6 (IL-6) content of conditioned medium from nicotinamide and FGF4-treated MSC cultures. Bone marrow mesenchymal stem cells were isolated and cultured as in FIG. 22 above. Cultured media was changed to medium without fetal bovine serum or FGF4 24 hours prior to passage 4, collected from the passage 4 cultures and assayed for IL-6 content by ELISA. −NAM, −FGF4=control; +NAM−FGF4=5 mM NAM, +NAM+FGF4=5 mM NAM+50 ng/ml FGF4. […] In order to assess whether mesenchymal stem cells cultured with nicotinamide or nicotinamide and FGF4 modify the culture medium in a unique manner, secretion of biologically active molecules into the culture medium was measured by ELISA, after depletion of the FGF4 from the medium.
# [1] = test system: bone marrow derived mesenchymal stem cells; experiment: Bone marrow derived MSC seeding and expansion with nicotinamide
# Procedure: FIG. 11 is a bar graph illustrating % of BM derived adherent cells expressing mesenchymal stem cells markers in culture seeded +/−NAM, prior to the first passage. Mononuclear cells were isolated from bone marrow using Ficoll and the “plastic adherence” method in the presence or absence of Nicotinamide. Non-adherent cells were washed away 3-4 days later and the media was replaced every 3-4 days. FACS analysis was performed in order to obtain expression levels of surface molecules prior to the first passage (8 days post-seeding). Isolation: Bone marrow derived and adipose tissue derived mesenchymal cells were isolated based on their plastic adherence potential in expansion medium containing: High glucose DMEM and 10% Fetal Bovine Serum (FBS, Hyclone, Logan, Utah, USA) supplemented with 0.05 mg/ml Gentamicin (Sigma) and 2 mM L-glutamine (Biological Industries, Israel). Cells were allowed to adhere for 3-4 days and non-adherent cells were washed out with medium changes. The medium was further exchanged with fresh medium every 3-4 days. Maintenance and expansion: Once adherent cells reached approximately 80-90% confluency, they were detached with 0.25% trypsin-EDTA (Sigma), washed twice in DMEM and 10% Fetal Bovine Serum, with centrifugation, 400 g, 5 minutes, and re-plated at a 1:2 to 1:1000 dilution under the same culture conditions. Measurement of number of cells in culture: Cell number was measured using Cedex Automated Cell Counter (Innovatis). The cells were diluted 1:2 in Trypan Blue (Sigma) and cell number was measured automatically under microscope. Treatment of mesenchymal cultures with nicotinamide: Mesenchymal cultures were initiated as described above, […], or in combination with growth factors or growth factors alone, incubated at 37° C. in a humidified atmosphere of 5% CO2 in air. At each passage and at each medium exchange, the cultures were supplemented with mesenchymal medium, nicotinamide and growth factors.
# [2] = test system: Hepatocyte Growth Factor (HGF); experiment: HGF content of MSC conditioned medium by ELISA; conditions: passage 4; 5 mM NAM, 50 ng/ml FGF4; serum- and FGF4-free medium for 24 hours
# Text: FIG. 22 is a bar graph illustrating enhancement of Hepatocyte Growth Factor (HGF) content of conditioned medium from nicotinamide and FGF4-treated MSC cultures. Bone marrow mesenchymal stem cells were isolated using Ficoll and plastic adherence method, and cultured for several passages with fetal bovine serum, with added nicotinamide and FGF4 (+NAM+FGF4), with added nicotinamide (+NAM−FGF4) and without added nicotinamide or FGF (−NAM−FGF4). Twenty four hours before passage 4, the media was changed and fresh media without fetal bovine serum or FGF4 was added. The cultured media from passage 4 cultures was collected and assayed for HGF content by ELISA. −NAM, −FGF4=control; +NAM−FGF4=5 mM NAM, +NAM+FGF4=5 mM NAM+50 ng/ml FGF4. Note the significant effect of combined FGF4 and nicotinamide on HGF secretion; Mesenchymal stem cells cultured with nicotinamide and FGF4 have enhanced expansion potential, and maintain an undifferentiated state, compared to mesenchymal stem cells cultured in unsupplemented medium, or mesenchymal stem cells cultured with added nicotinamide alone. In order to assess whether mesenchymal stem cells cultured with nicotinamide or nicotinamide and FGF4 modify the culture medium in a unique manner, secretion of biologically active molecules into the culture medium was measured by ELISA, after depletion of the FGF4 from the medium.
# mesenchymal stem cells = experiment: In-vitro wound healing assay on MSC cultures; conditions: passage 3; 4 days post wound formation
# Procedure: FIGS. 20A-B are photographs illustrating results of an in vitro wound healing assay which was performed on MSCs cultured with (FIG. 20B) or without (FIG. 20A) nicotinamide at passage 3. Wound healing was observed 4 days post wound formation. In-vitro wound healing assay: Wound was performed in MSCs cultures at ˜70% confluence using 200 μl or 1000 μl tip. Four days later the cells were fixated using 10% cold Formalin (Sigma) and stained with Harris Hematoxylin (Sigma). The in-vitro wound healing process was evaluated using microscope.
compound,measurement,setting,value
"NC(=O)c1cccnc1 [nicotinamide, Nicotinamide]",IL-6 secreted into conditioned medium,IL-6,reduction
same,expansion rate of bone marrow derived MSCs,"[1]; low concentration of nicotinamide, e.g. 0.1 mM",insignificant effect
same,MSC doubling time,[1]; nicotinamide added from initiation of culture and at each passage,decreasing doubling time
same,seeding efficacy (selection) of bone marrow derived MSCs,[1]; seeded with or without nicotinamide,increased the seeding efficacy
same,HGF level in conditioned medium,[2],elevated levels
same,wound closure capacity of MSCs,mesenchymal stem cells,higher wound closure capacity
